This experiment concerns the target SUMO-conjugating enzyme UBC9 (Homo sapiens) (UniProt P63279). Kind of experiment: potency of SUMOylation cascade inhibitors, SAR follow-up, biochemical, HTRF, set 2 (AID 485337). To be noted: in vitro SUMOylation, HTRF read-out.

Calls of active or inactive are those of the source. The rule behind the calls is not given here.

Sequence of SUMO-conjugating enzyme UBC9 (Homo sapiens) (P63279 whole entry, looked up): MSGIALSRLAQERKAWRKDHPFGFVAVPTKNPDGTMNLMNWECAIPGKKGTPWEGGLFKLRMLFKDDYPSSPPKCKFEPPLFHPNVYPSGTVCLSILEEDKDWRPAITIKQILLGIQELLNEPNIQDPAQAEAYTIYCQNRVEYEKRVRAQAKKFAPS

Broadly, the IC50 is the concentration needed to halve the response being measured. On to `N#Cc1c(NC(=O)c2ccccc2Cl)n(Cc2ccccc2)c2nc3ccccc3nc12`, for which the IC50 was 12.2 µM.

`CCCCn1c(NC(=O)c2ccco2)c(C#N)c2nc3ccccc3nc21`: the IC50 is 8.06 µM.

For `COc1cc(/C=C2\C(=O)N(c3ccccc3)N=C2C)ccc1OCc1ccccc1`, the IC50 was > 100 µM (inactive).

Turning to `CCCCn1c(NC(=O)c2ccco2)c(S(=O)(=O)c2ccc(C)cc2)c2nc3ccccc3nc21`, the IC50 is 12.5 µM.

Regarding `Cc1cc(C)c2c(c1)C(=O)C(=O)N2CCN1CCOCC1`, the IC50 was > 100 µM (inactive).

For the compound `CCCCn1c(NC(=O)c2ccccc2Cl)c(S(=O)(=O)c2ccccc2)c2nc3ccccc3nc21`, the IC50 is 37.6 µM.

Consider `COc1ccc2c(c1)C(NC(C)=O)C(=O)N2CCN1CCOCC1` (centres undefined), for which the IC50 is 6.06 µM.

Take `COCCNC(=O)c1c(NC(=O)c2ccccc2)n(Cc2ccccc2)c2nc3ccccc3nc12`: the IC50 was 13.4 µM.

Consider `COc1ccc2c(c1)C(NC(C)=O)C(=O)N2CCc1ccccc1` (centres undefined), for which the IC50 is > 100 µM (inactive).

As for `COc1ccc2c(c1)C(NC(C)=O)C(=O)N2CCOc1ccccc1` (centres undefined), the IC50 was > 100 µM (inactive).

With `COc1cc(/C=C2\C(=O)N(c3ccccc3)N=C2C)ccc1O`, the IC50 is > 100 µM (inactive).

Consider `Nc1c(C(=O)NCc2ccco2)c2nc3ccccc3nc2n1Cc1ccccc1`, for which the IC50 was 31.1 µM.

Regarding `COCCn1c(NC(=O)c2ccc(Cl)cc2)c(S(=O)(=O)c2ccc(C)cc2)c2nc3ccccc3nc21`, the IC50 is 78.8 µM.

For `CCCCn1c(NC(C)=O)c(C#N)c2nc3ccccc3nc21`, the IC50 was 3.39 µM.

`CCCCn1c(NC(=O)c2ccccc2)c(C#N)c2nc3ccccc3nc21`: the IC50 was 16.4 µM.

For `CCCCn1c(NC(=O)c2ccc(Cl)cc2)c(C#N)c2nc3ccccc3nc21`, the IC50 was 22.6 µM.

As for `COc1ccc(CN2C(=O)C(NC(C)=O)c3ccccc32)cc1` (centres undefined), the IC50 was > 100 µM (inactive).

Take `COc1ccc2c(c1)C(NC(C)=O)C(=O)N2CC1COc2ccccc2O1` (centres undefined): the IC50 was > 100 µM (inactive).

`CCCCCn1c(NC(=O)c2ccco2)c(C(=O)OCC)c2nc3ccccc3nc21`: the IC50 was 14.8 µM.

In the case of `S=c1[nH]nc(-c2cc(-c3ccccc3)n[nH]2)n1N=Cc1ccc(Br)s1`, the IC50 entry is “inactive”.

As for `CCCCn1c(NC(=O)CC)c(S(=O)(=O)c2ccc(C)cc2)c2nc3ccccc3nc21`, the IC50 result is “inactive”.

For the compound `CCCCNC(=O)c1c(NC(=O)c2ccccc2)n(Cc2ccccc2)c2nc3ccccc3nc12`, the IC50 is 30.6 µM.

As for `N#Cc1c(NC(=O)c2ccccc2Cl)n(C2CCCCC2)c2nc3ccccc3nc12`, the IC50 is 23.1 µM.

As for `CC(=O)NC1C(=O)N(CCN2CCOCC2)c2ccc(C)cc21` (centres undefined), the IC50 is > 100 µM (inactive).

Turning to `COc1cc(/C=C2\C(=O)N(c3ccccc3)N=C2C)ccc1OC(=O)c1cccs1`, the IC50 is > 100 µM (inactive).

For the compound `CCCN1C(=O)C(NC(C)=O)c2cc(OC)ccc21` (centres undefined), the IC50 is > 100 µM (inactive).

Regarding `CCCCn1c(N)c(S(=O)(=O)c2ccc(C)cc2)c2nc3ccccc3nc21`, the IC50 was 9.28 µM.

Regarding `CCCCn1c(NC(=O)c2ccccc2)c(S(=O)(=O)c2ccc(C)cc2)c2nc3ccccc3nc21`, the IC50 entry is “inactive”.

With `COc1ccc2c(c1)C(=O)C(=O)N2CCN1CCOCC1`, the IC50 was > 100 µM (inactive).

The values above are taken from PubChem BioAssay AID485337 (Sanford-Burnham Center for Chemical Genomics, 2010).
